From ChEMBL document CHEMBL5727423, “Methods using HDAC11 inhibitors” (2019)
pIC50: −log10 of the molar value.

Biological target: T1, Histone deacetylase 11 (Homo sapiens, UniProt Q96DB2)
T1 sequence (Q96DB2 whole entry): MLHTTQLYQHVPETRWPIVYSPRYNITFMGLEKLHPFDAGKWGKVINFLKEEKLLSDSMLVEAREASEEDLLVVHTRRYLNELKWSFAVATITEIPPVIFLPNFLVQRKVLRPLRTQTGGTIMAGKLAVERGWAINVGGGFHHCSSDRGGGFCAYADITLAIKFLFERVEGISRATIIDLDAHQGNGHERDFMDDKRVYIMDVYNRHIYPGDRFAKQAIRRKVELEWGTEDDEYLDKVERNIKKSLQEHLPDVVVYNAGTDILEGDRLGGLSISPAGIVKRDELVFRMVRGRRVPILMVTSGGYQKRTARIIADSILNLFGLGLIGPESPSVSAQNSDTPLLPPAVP
Test: HDAC Inhibition Assays: This example describes in vitro inhibition properties of exemplary HDAC11 inhibitors for various HDACs. HDAC inhibition assays were performed using an electrophoretic mobility shift assay at Nanosyn, Inc. (Santa Clara, Calif.). Full length human recombinant HDAC proteins were expressed in the baculoviral system and purified by affinity chromatography. A human recombinant HDAC3 was co-expressed with nuclear receptor corepressor (Ncor2). The following peptide substrates were used: FAM-RHKK(Ac)-NH2 for HDAC3, HDAC6 and HDAC8; FITC-H3K27(Ac)-NH2 for HDAC1, HDAC2 and HDAC10; FAM-RHKK(tri-fluor-Ac)-NH2 for HDAC4, HDAC5, HDAC7, HDAC9 and HDAC11. Reactions consisting of compound, enzyme, and substrate were performed in reaction buffer (comprised of 100 mM HEPES, pH7.5, 25 mM KCl, 0.1% bovine serum albumin, 0.01% Triton X-100) at 25° C. and quenched by the addition of termination buffer (100 mM HEPES, pH7.5, 0.01% Triton X-100, 0.05% SDS). The fluorescence intensity of the electrophoretically separated de-acetylated product and substrate peptide were measured and analyzed using the LabChip® 3000 microfluidic electrophoresis instrument (Perkin Elmer/Caliper Life Sciences). The IC50 values of inhibitors were determined by fitting the %-inhibition curves with 4 parameter dose-response model using XLfit 4 software (IDBS).

N#Cc1cc2nc(Nc3cccc(C(=O)NO)c3)[nH]c2cc1C(F)(F)F
pIC50: > 6.30
